# In publication PMC5793714, “Functional implications of corticosteroid-binding globulin N-glycosylation” (Journal of Molecular Endocrinology, 2017):
# How the values were obtained:
# [1] = target: T1, human CBG (corticosteroid-binding globulin, SERPINA6) (Homo sapiens, UniProt P08185); assay: saturation binding, dextran-coated charcoal, Scatchard
# T1 construct: full-length cDNA in pRc/CMV, secreted mature N-glycosylated protein from stably transfected CHO-S cells (also Lec1 and Lec2 lines), semi-purified by HiTrap QFF FPLC or concentrated medium; no tag told
# T1 sequence (P08185 23-405): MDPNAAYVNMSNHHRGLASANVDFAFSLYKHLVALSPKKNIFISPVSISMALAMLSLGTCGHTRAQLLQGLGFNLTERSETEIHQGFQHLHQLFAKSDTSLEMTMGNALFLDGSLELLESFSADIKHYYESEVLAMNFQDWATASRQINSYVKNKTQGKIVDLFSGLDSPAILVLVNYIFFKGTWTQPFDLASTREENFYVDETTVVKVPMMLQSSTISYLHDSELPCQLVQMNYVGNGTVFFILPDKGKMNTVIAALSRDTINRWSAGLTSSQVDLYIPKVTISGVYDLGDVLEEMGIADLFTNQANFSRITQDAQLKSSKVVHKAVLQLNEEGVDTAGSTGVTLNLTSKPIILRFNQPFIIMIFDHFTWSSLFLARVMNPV
# rat CBG = target: T2, rat CBG (Rattus norvegicus, UniProt P31211); assay: as above
# T2 construct: gene Serpina6; full-length cDNA in pcDNA3, secreted mature N-glycosylated protein from stably transfected CHO-S cells (also Lec1 and Lec2 lines), FPLC semi-purified or concentrated medium; no tag told
# T2 sequence (P31211 23-396): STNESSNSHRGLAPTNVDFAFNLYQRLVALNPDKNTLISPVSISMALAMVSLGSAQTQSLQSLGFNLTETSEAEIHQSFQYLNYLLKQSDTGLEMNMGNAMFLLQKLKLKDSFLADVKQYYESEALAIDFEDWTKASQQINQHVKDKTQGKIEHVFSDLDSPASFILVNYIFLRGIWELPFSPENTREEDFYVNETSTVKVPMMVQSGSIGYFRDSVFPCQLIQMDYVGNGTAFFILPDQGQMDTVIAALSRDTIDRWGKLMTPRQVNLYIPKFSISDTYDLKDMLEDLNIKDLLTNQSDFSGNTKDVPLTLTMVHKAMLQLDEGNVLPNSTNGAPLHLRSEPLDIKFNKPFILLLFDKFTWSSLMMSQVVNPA
Kd [1],Kd (rat CBG),Structure (SMILES)
1.1 nM,–,C[C@]12CCC(=O)C=C1CC[C@@H]1[C@@H]2[C@@H](O)C[C@@]2(C)[C@H]1CC[C@]2(O)C(=O)CO [cortisol]
–,2.1 nM,C[C@]12C[C@H](O)[C@H]3[C@@H](CCC4=CC(=O)CC[C@@]43C)[C@@H]1CC[C@@H]2C(=O)CO [corticosterone]
